Our source for the inhibition values is patent US10196381B2, “Benzimidazole-2-piperazine heterocyclic compound, pharmaceutical composition containing the same, preparation method and use thereof” (Shanghai Huilun Life Science & Technology Co., Ltd., priority 2013, dated 2019).

In the test the target is PARP-1 enzyme (Homo sapiens (Human), UniProt P09874). Nature of the test: PARP enzyme activity assay (HT Universal Chemiluminescent PARP Assay Kit, histone-coated wells). The format is biochemical. To be noted: for inhibition at 0.03 µM: read-out: Inhibition (%) at 30 nM; for inhibition at 0.1 µM: read-out: Inhibition (%) at 100 nM. The method, then:
PARP is an enzyme responsible for post-translational modification, which may be activated by means of DNA damage. The process catalyzed by PARP in vivo is mainly NAD-dependent poly(ADP-ribosyl)ation, in which the substrates are mainly some nuclear proteins including PARP, one example of which is histone. In the present invention, the PARP activity is assayed by determining the poly(ADP-ribosyl)ation degree of histone coated in a 96-well plate in the presence of NAD, and the PARP activity under the action of a PARP inhibitor is correspondingly assayed, thereby evaluating the degree of inhibition of the compounds on PARP activity. Poly(ADP-ribosyl)ation of nuclear proteins is a post-translational modification occurred in response to DNA damage. PARP is the abbreviation of poly(ADP-ribose)polymerase, which catalyzes the attachment of poly(ADP-ribose) to an adjacent nuclear protein in the presence of NAD, thus eliciting a mechanism of DNA repair through base excision repair pathway. The level of biotin-labeled ADP-ribose binding to histone can be detected by using the HT Universal Chemiluminescent PARP Assay Kit commercially available from Trevigen Corp. […] HT Universal Chemiluminescent PARP Assay Kit with Histone-coated Strip Wells, commercially available from Trevigen (US), Catalog #: 4676-096-K. […] 4. The PARP enzyme was carefully diluted with the 1×PARP buffer just before use, the diluted enzyme solution should be used as quickly as possible and the remaining solution should be discarded. […] 2. […] 1. […] 2. […] 4. […] After washing, equal volume of the PeroxyGlow A and B solutions were uniformly mixed, 100 μl of the solution was added to each well, and the chemiluminescent signals were recorded on a plate reader immediately. The readout of each well is converted into the percent inhibition. […] Note: the readout of the positive control well is designated as 100% enzyme activity; the readout of the negative control well is designated as 0% enzyme activity; and the activity X refers to the readout from respective concentration of each sample.

Chain of PARP-1 enzyme (P09874 whole entry): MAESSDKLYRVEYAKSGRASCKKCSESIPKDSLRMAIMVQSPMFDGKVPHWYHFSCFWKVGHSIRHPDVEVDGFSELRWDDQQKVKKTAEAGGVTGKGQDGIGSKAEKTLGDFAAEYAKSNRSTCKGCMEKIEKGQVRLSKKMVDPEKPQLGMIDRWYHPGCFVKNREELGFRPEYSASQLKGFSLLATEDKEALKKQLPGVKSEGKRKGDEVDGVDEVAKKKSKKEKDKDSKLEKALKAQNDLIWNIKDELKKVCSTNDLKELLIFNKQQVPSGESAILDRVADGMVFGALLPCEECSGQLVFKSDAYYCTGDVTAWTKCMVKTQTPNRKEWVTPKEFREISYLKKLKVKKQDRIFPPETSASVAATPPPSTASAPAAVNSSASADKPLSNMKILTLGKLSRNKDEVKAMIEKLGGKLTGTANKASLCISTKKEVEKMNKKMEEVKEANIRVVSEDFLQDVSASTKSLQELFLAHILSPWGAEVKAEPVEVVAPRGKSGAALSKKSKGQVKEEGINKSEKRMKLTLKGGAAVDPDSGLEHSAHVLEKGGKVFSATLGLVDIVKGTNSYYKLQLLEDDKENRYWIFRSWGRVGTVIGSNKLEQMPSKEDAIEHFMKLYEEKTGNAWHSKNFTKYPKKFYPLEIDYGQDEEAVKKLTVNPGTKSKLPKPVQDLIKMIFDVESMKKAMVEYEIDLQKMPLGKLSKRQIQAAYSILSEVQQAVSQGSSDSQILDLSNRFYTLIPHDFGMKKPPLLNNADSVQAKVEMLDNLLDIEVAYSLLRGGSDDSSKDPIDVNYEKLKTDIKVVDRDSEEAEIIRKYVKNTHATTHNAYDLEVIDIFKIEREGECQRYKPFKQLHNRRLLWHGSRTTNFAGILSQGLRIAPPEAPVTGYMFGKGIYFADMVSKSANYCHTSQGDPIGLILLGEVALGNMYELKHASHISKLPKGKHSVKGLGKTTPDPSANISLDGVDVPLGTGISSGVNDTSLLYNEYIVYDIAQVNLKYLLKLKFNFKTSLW

Take `NC(=O)c1cccc2[nH]c(N3CCN(c4ncccn4)CC3)nc12` [Compound (1), 2-(4-(pyrimidin-2-yl)piperazin-1-yl)-1H-benzimidazole-4-carboxamide]: the inhibition at 0.03 µM turned out to be 59% and the inhibition at 0.1 µM came out at 76%.

With `NC(=O)c1cccc2[nH]c(N3CCN(c4ncc(F)cn4)CC3)nc12` [Compound (2), 2-(4-(5-fluoropyrimidin-2-yl)piperazin-1-yl)-1H-benzimidazole-4-carboxamide], the inhibition at 0.03 µM worked out at 42% and the inhibition at 0.1 µM was 69%.

As to `CCNc1cnc(N2CCN(c3nc4c(C(N)=O)cccc4[nH]3)CC2)nc1` [Compound (3), 2-(4-(5-ethylaminopyrimidin-2-yl)piperazin-1-yl)-1H-benzimidazole-4-carboxamide], the inhibition at 0.03 µM turned out to be 6% and the inhibition at 0.1 µM turned out to be 13%.

On to `CC(=O)Nc1cnc(N2CCN(c3nc4c(C(N)=O)cccc4[nH]3)CC2)nc1` [Compound (4), 2-(4-(5-acetamidopyrimidin-2-yl)piperazin-1-yl)-1H-benzimidazole-4-carboxamide], for which the inhibition at 0.03 µM stood at 27% and the inhibition at 0.1 µM was 53%.

In the case of `COc1cnc(N2CCN(c3nc4c(C(N)=O)cccc4[nH]3)CC2)nc1` [Compound (5), 2-(4-(5-methoxypyrimidin-2-yl)piperazin-1-yl)-1H-benzimidazole-4-carboxamide], the inhibition at 0.03 µM was found to be 32% and the inhibition at 0.1 µM turned out to be 60%.

Consider `NC(=O)c1cccc2[nH]c(N3CCN(c4ncc(N)cn4)CC3)nc12` [Compound (6), 2-(4-(5-aminopyrimidin-2-yl)piperazin-1-yl)-1H-benzimidazole-4-carboxamide], for which the inhibition at 0.03 µM turned out to be 26% and the inhibition at 0.1 µM worked out at 54%.

Turning to `NC(=O)c1cccc2[nH]c(N3CCN(c4ccncn4)CC3)nc12` [Compound (7), 2-(4-(pyrimidin-4-yl)piperazin-1-yl)-1H-benzimidazole-4-carboxamide], the inhibition at 0.03 µM was determined as 73% and the inhibition at 0.1 µM came out at 85%.

Regarding `CCNc1cccnc1N1CCN(c2nc3c(C(N)=O)cccc3[nH]2)CC1` [Compound (8), 2-(4-(3-ethylaminopyridin-2-yl)piperazin-1-yl)-1H-benzimidazole-4-carboxamide], the inhibition at 0.03 µM stood at 8% and the inhibition at 0.1 µM was found to be 16%.

Turning to `NC(=O)c1cccc2[nH]c(N3CCN(c4nccc(C(F)(F)F)n4)CC3)nc12` [Compound (9), 2-(4-(4-trifluoromethylpyrimidin-2-yl)piperazin-1-yl)-1H-benzimidazole-4-carboxamide], the inhibition at 0.03 µM amounted to 16% and the inhibition at 0.1 µM worked out at 31%.

On to `NC(=O)c1cccc2[nH]c(N3CCN(c4cc(C(F)(F)F)ncn4)CC3)nc12` [Compound (10), 2-(4-(6-trifluoromethylpyrimidin-4-yl)piperazin-1-yl)-1H-benzimidazole-4-carboxamide], for which the inhibition at 0.03 µM worked out at 38% and the inhibition at 0.1 µM came out at 64%.

As for `CNC(=O)c1ccc(N2CCN(c3nc4c(C(N)=O)cccc4[nH]3)CC2)nc1` [Compound (11), 2-(4-(5-methylcarbamoylpyridin-2-yl)piperazin-1-yl)-1H-benzimidazole-4-carboxamide], the inhibition at 0.03 µM came out at 59% and the inhibition at 0.1 µM amounted to 78%.

With `NC(=O)c1ccc(N2CCN(c3nc4c(C(N)=O)cccc4[nH]3)CC2)nc1` [Compound (12), 2-(4-(5-carbamoylpyridin-2-yl)piperazin-1-yl)-1H-benzimidazole-4-carboxamide], the inhibition at 0.03 µM came out at 57% and the inhibition at 0.1 µM was found to be 77%.

For the compound `NC(=O)c1cccc2[nH]c(N3CCN(c4ccnc(C(F)(F)F)c4)CC3)nc12` [Compound (13), 2-(4-(2-trifluoromethylpyridin-4-yl)piperazin-1-yl)-1H-benzimidazole-4-carboxamide], the inhibition at 0.03 µM was 43% and the inhibition at 0.1 µM is 69%.

With `N#Cc1cnc(N2CCN(c3nc4c(C(N)=O)cccc4[nH]3)CC2)nc1` [Compound (14), 2-(4-(5-cyanopyrimidin-2-yl)piperazin-1-yl)-1H-benzimidazole-4-carboxamide], the inhibition at 0.03 µM worked out at 57% and the inhibition at 0.1 µM stood at 78%.

For the compound `CN(C)C(=O)c1ccc(N2CCN(c3nc4c(C(N)=O)cccc4[nH]3)CC2)nc1` [Compound (15), 2-(4-(5-dimethylcarbamoylpyridin-2-yl)piperazin-1-yl)-1H-benzimidazole-4-carboxamide], the inhibition at 0.03 µM was found to be 44% and the inhibition at 0.1 µM amounted to 70%.

In the case of `NC(=O)c1cc(F)cc2[nH]c(N3CCN(c4ccncn4)CC3)nc12` [Compound (16), 6-fluoro-2-(4-(pyrimidin-4-yl)piperazin-1-yl)-1H-benzimidazole-4-carboxamide], the inhibition at 0.03 µM was 78% and the inhibition at 0.1 µM came to 91%.

Take `NC(=O)c1cc(F)cc2[nH]c(N3CCN(c4ncc(F)cn4)CC3)nc12` [Compound (17), 6-fluoro-2-(4-(5-fluoropyrimidin-2-yl)piperazin-1-yl)-1H-benzimidazole-4-carboxamide]: the inhibition at 0.03 µM is 56% and the inhibition at 0.1 µM turned out to be 78%.

Turning to `CN(C)C(=O)c1ccc(N2CCN(c3nc4c(C(N)=O)cc(F)cc4[nH]3)CC2)nc1` [Compound (18), 2-(4-(5-(dimethylcarbamoyl)pyridin-2-yl)piperazin-1-yl)-6-fluoro-1H-benzimidazole-4-carboxamide], the inhibition at 0.03 µM turned out to be 56% and the inhibition at 0.1 µM was determined as 77%.

Turning to `N#Cc1cnc(N2CCN(c3nc4c(C(N)=O)cc(F)cc4[nH]3)CC2)nc1` [Compound (19), 2-(4-(5-cyanopyrimidin-2-yl)piperazin-1-yl)-6-fluoro-1H-benzimidazole-4-carboxamide], the inhibition at 0.03 µM was determined as 77% and the inhibition at 0.1 µM worked out at 93%.

Regarding `CNC(=O)c1cccnc1N1CCN(c2nc3c(C(N)=O)cc(F)cc3[nH]2)CC1` [Compound (20), 6-fluoro-2-(4-(3-methylcarbamoylpyridin-2-yl)piperazin-1-yl)-1H-benzimidazole-4-carboxamide], the inhibition at 0.03 µM was determined as 39% and the inhibition at 0.1 µM turned out to be 67%.

In the case of `NC(=O)c1cc(F)cc2[nH]c(N3CCN(c4ccc(C(F)(F)F)cn4)CC3)nc12` [Compound (21), 6-fluoro-2-(4-(5-trifluoromethylpyridin-2-yl)piperazin-1-yl)-1H-benzimidazole-4-carboxamide], the inhibition at 0.03 µM was 32% and the inhibition at 0.1 µM was 60%.

Take `CNC(=O)c1cnc(N2CCN(c3nc4c(C(N)=O)cc(F)cc4[nH]3)CC2)nc1` [Compound (22), 6-fluoro-2-(4-(5-methylcarbamoylpyrimidin-2-yl)piperazin-1-yl)-1H-benzimidazole-4-carboxamide]: the inhibition at 0.03 µM came to 71% and the inhibition at 0.1 µM was 93%.

Turning to `CNC(=O)c1ccc(N2CCN(c3nc4c(C(N)=O)cc(F)cc4[nH]3)CC2)nn1` [Compound (23), 6-fluoro-2-(4-(6-methylcarbamoylpyridazin-3-yl)piperazin-1-yl)-1H-benzimidazole-4-carboxamide], the inhibition at 0.03 µM was 78% and the inhibition at 0.1 µM is 89%.

As to `CNC(=O)c1ccc(N2CCN(c3nc4c(C(N)=O)cc(F)cc4[nH]3)CC2)nc1` [Compound (24), 6-fluoro-2-(4-(5-methylcarbamoylpyridin-2-yl)piperazin-1-yl)-1H-benzimidazole-4-carboxamide], the inhibition at 0.03 µM stood at 45% and the inhibition at 0.1 µM was 65%.

Regarding `CNC(=O)c1cnc(N2CCN(c3nc4c(C(N)=O)cc(F)cc4[nH]3)CC2)cn1` [Compound (25), 6-fluoro-2-(4-(5-methylcarbamoylpyrazin-2-yl)piperazin-1-yl)-1H-benzimidazole-4-carboxamide], the inhibition at 0.03 µM was determined as 79% and the inhibition at 0.1 µM came out at 92%.

`CCNC(=O)c1cnc(N2CCN(c3nc4c(C(N)=O)cc(F)cc4[nH]3)CC2)cn1` [Compound (26), 2-(4-(5-ethylcarbamoylpyrazin-2-yl)piperazin-1-yl)-6-fluoro-1H-benzimidazole-4-carboxamide]: the inhibition at 0.03 µM came out at 80% and the inhibition at 0.1 µM is 94%.

Take `CC(C)NC(=O)c1cnc(N2CCN(c3nc4c(C(N)=O)cc(F)cc4[nH]3)CC2)cn1` [Compound (27), 6-fluoro-2-(4-(5-isopropylcarbamoylpyrazin-2-yl)piperazin-1-yl)-1H-benzimidazole-4-carboxamide]: the inhibition at 0.03 µM was 66% and the inhibition at 0.1 µM worked out at 86%.

Regarding `CC(C)(C)NC(=O)c1cnc(N2CCN(c3nc4c(C(N)=O)cc(F)cc4[nH]3)CC2)cn1` [Compound (28), 2-(4-(5-t-butylcarbamoylpyrazin-2-yl)piperazin-1-yl)-6-fluoro-1H-benzimidazole-4-carboxamide], the inhibition at 0.03 µM was 53% and the inhibition at 0.1 µM came to 78%.
